Reference: patent publication US20260022143A1, “Cyclic Peptide Inhibitors of IL-23” (JANSSEN PHARMACEUTICA NV, priority 2022, published 2026)
Structures can show the parent of a compound that is named as a salt. Positions of bridges follow the written chain, without caps; N, C: chain ends. Non-standard residues stand in square brackets, D forms with d. Residues, ends and D or L forms follow the SMILES beside them. Groups on a side chain read outwards from the residue. *: point of attachment. PEG12 = NCCOCCOCCOCCOCCOCCOCCOCCOCCOCCOCCOCCOCCC(=O)O; Trp(7-Me) = Cc1cccc2c(C[C@H](N)C(=O)O)c[nH]c12; PEG9 = NCCOCCOCCOCCOCCOCCOCCOCCOCCOCCC(=O)O; 2Nal = N[C@@H](Cc1ccc2ccccc2c1)C(=O)O; AEF = NCCOc1ccc(C[C@H](N)C(=O)O)cc1; dNMeY = CN[C@H](Cc1ccc(O)cc1)C(=O)O; PEG6 = NCCOCCOCCOCCOCCOCCOCCC(=O)O; 3Pal = N[C@@H](Cc1cccnc1)C(=O)O; d3Pal = N[C@H](Cc1cccnc1)C(=O)O; Pen = CC(C)(S)[C@H](N)C(=O)O; αMeK = C[C@](N)(CCCCN)C(=O)O; Thp = NC1(C(=O)O)CCOCC1; Me2NCH2CH2 = CN(C)CC*; Tfa = O=C(C(F)(F)F)*; Sar = CNCC(=O)O; X2 = CNCC*

Assay: Exposed Polar Surface Area (EPSA)
Assay type: physicochemical
Details: SFC on Chirex 3014 column; sample 1 mM DMSO stock
Outline: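 Polarity measured by SFC on a Chirex 3014 column (35 °C, 4 mL/min) with methanol/ammonium formate in CO2 as gradient eluent. Retention times were normalised to EPSA (Å^2) against eight reference compounds.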

EPSA	SMILES
170.27 Å^2	CC(=O)NCCCC[C@H](NC(=O)[C@](C)(CCCCN)NC(=O)[C@H](Cc1ccc2ccccc2c1)NC(=O)[C@H](Cc1ccc(OCCN)cc1)NC(=O)[C@H]1NC(=O)[C@H](Cc2ccc(O)cc2)NC(=O)[C@H](Cc2c[nH]c3c(C)cccc23)NC(=O)[C@H]([C@@H](C)O)NC(=O)[C@H](CC(N)=O)NC(=O)[C@@H](NC(C)=O)C(C)(C)SSC1(C)C)C(=O)N[C@@H](CC(N)=O)C(=O)N[C@H](CCCCN)C(=O)N(C)[C@H](Cc1ccc(O)cc1)C(N)=O [compound 21, MeCO-Pen(3)-N-T-7MeW-Y-Pen(3)-AEF-2Nal-aMeK-K(Ac)-N-k-NMeDTyr-CONH2] (Ac-[Pen]NT[Trp(7-Me)]Y[Pen][AEF][2Nal][αMeK]K(Ac)N[dK][dNMeY]-NH2; disulfide 1-6 (inferred))

Same assay, conditions: SFC on Chirex 3014 column; sample 1 mM DMSO stock; read-out: EPSA

SMILES	EPSA
CC(=O)NCCCC[C@@H]1NC(=O)[C@H](Cc2c[nH]c3c(C)cccc23)NC(=O)[C@H]([C@@H](C)O)NC(=O)[C@H](CC(N)=O)NC(=O)[C@@H](NC(C)=O)C(C)(C)SSC(C)(C)[C@@H](C(=O)N[C@@H](Cc2ccc(OCCN)cc2)C(=O)N[C@@H](Cc2ccc3ccccc3c2)C(=O)N[C@@](C)(CCCCN)C(=O)N[C@@H](CCCCNC(C)=O)C(=O)N[C@@H](CC(N)=O)C(=O)N[C@H](Cc2ccccc2)C(=O)N(C)[C@H](Cc2ccc(O)cc2)C(N)=O)NC1=O [compound 20, MeCO-Pen(3)-N-T-7MeW-K(Ac)-Pen(3)-AEF-2Nal-aMeK-K(Ac)-N-f-NMeDTyr-CONH2] (Ac-[Pen]NT[Trp(7-Me)]K(Ac)[Pen][AEF][2Nal][αMeK]K(Ac)N[dF][dNMeY]-NH2; disulfide 1-6 (inferred))	168 A^2
CC(=O)NCCCC[C@@H]1NC(=O)[C@H](Cc2c[nH]c3c(C)cccc23)NC(=O)[C@H]([C@@H](C)O)NC(=O)[C@H](CC(N)=O)NC(=O)[C@@H](NC(C)=O)C(C)(C)SSC(C)(C)[C@@H](C(=O)N[C@@H](Cc2ccc(OCCN)cc2)C(=O)N[C@@H](Cc2ccc3ccccc3c2)C(=O)N[C@@](C)(CCCCN)C(=O)N[C@@H](CCCCNC(C)=O)C(=O)N[C@@H](CC(N)=O)C(=O)N[C@@H](Cc2cccnc2)C(=O)N(C)[C@H](Cc2ccc(O)cc2)C(N)=O)NC1=O [compound 30, MeCO-Pen(3)-N-T-7MeW-K(Ac)-Pen(3)-AEF-2Nal-aMeK-K(ac)-N-3Pya-NMeDTyr-CONH2] (Ac-[Pen]NT[Trp(7-Me)]K(Ac)[Pen][AEF][2Nal][αMeK]K(Ac)N[3Pal][dNMeY]-NH2; disulfide 1-6)	166 A^2
CC(=O)NCCCC[C@@H]1NC(=O)[C@H](Cc2c[nH]c3c(C)cccc23)NC(=O)[C@H]([C@@H](C)O)NC(=O)[C@H](CC(N)=O)NC(=O)[C@@H](NC(C)=O)C(C)(C)SSC(C)(C)[C@@H](C(=O)N[C@@H](Cc2ccc(OCCN(C)C)cc2)C(=O)N[C@@H](Cc2ccc3ccccc3c2)C(=O)N[C@@](C)(CCCCN)C(=O)N[C@@H](CCCCNC(C)=O)C(=O)N[C@@H](CC(N)=O)C(=O)NC2(C(N)=O)CCOCC2)NC1=O [compound 31] (Ac-[Pen]NT[Trp(7-Me)]K(Ac)[Pen]Y(Me2NCH2CH2)[2Nal][αMeK]K(Ac)N[Thp]-NH2; disulfide 1-6)	158 A^2
CC(=O)NCCCC[C@@H]1NC(=O)[C@H](Cc2c[nH]c3c(C)cccc23)NC(=O)[C@H]([C@@H](C)O)NC(=O)[C@H](CC(N)=O)NC(=O)[C@@H](NC(C)=O)C(C)(C)SSC(C)(C)[C@@H](C(=O)N[C@@H](Cc2ccc(OCCN)cc2)C(=O)N[C@@H](Cc2ccc3ccccc3c2)C(=O)N[C@@](C)(CCCCN)C(=O)N[C@@H](CCCCNC(C)=O)C(=O)N[C@@H](CC(N)=O)C(=O)N[C@H](Cc2cccnc2)C(=O)N(C)[C@H](Cc2ccc(O)cc2)C(N)=O)NC1=O [compound 32, MeCO-Pen(3)-N-T-7MeW-K(Ac)-Pen(3)-AEF-2Nal-aMeK-K(ac)-N-3pya-NMeDTyr-CONH2] (Ac-[Pen]NT[Trp(7-Me)]K(Ac)[Pen][AEF][2Nal][αMeK]K(Ac)N[d3Pal][dNMeY]-NH2; disulfide 1-6)	166 A^2
CC(=O)NCCCC[C@@H]1NC(=O)[C@H](Cc2c[nH]c3c(C)cccc23)NC(=O)[C@H]([C@@H](C)O)NC(=O)[C@H](CC(N)=O)NC(=O)[C@@H](NC(=O)[C@@H](CCCNC(=N)N)NC(=O)CCOCCOCCOCCOCCOCCOCCNC(C)=O)C(C)(C)SSC(C)(C)[C@@H](C(=O)N[C@@H](Cc2ccc(OCCN)cc2)C(=O)N[C@@H](Cc2ccc3ccccc3c2)C(=O)NC2(C(=O)N[C@@H](CCC(=O)O)C(=O)N[C@@H](CC(N)=O)C(=O)N[C@@H](Cc3cccnc3)C(=O)N(C)CC(N)=O)CCOCC2)NC1=O [compound 37] (Ac-[PEG6][dR][Pen]NT[Trp(7-Me)]K(Ac)[Pen][AEF][2Nal][Thp]EN[3Pal][Sar]-NH2; disulfide 3-8 (inferred))	174 A^2
CC(=O)NCCCC[C@@H]1NC(=O)[C@H](Cc2c[nH]c3c(C)cccc23)NC(=O)[C@H]([C@@H](C)O)NC(=O)[C@H](CC(N)=O)NC(=O)[C@@H](NC(=O)[C@@H](CCCNC(=N)N)NC(=O)CCOCCOCCOCCOCCOCCOCCOCCOCCOCCOCCOCCOCCNC(C)=O)C(C)(C)SSC(C)(C)[C@@H](C(=O)N[C@@H](Cc2ccc(OCCN)cc2)C(=O)N[C@@H](Cc2ccc3ccccc3c2)C(=O)NC2(C(=O)N[C@@H](CCC(=O)O)C(=O)N[C@@H](CC(N)=O)C(=O)N[C@@H](Cc3cccnc3)C(=O)N(C)CC(N)=O)CCOCC2)NC1=O [compound 38] (Ac-[PEG12][dR][Pen]NT[Trp(7-Me)]K(Ac)[Pen][AEF][2Nal][Thp]EN[3Pal][Sar]-NH2; disulfide 3-8)	172 A^2
CC(=O)NCCCC[C@@H]1NC(=O)[C@H](Cc2c[nH]c3c(C)cccc23)NC(=O)[C@H]([C@@H](C)O)NC(=O)[C@H](CC(N)=O)NC(=O)[C@@H](NC(=O)[C@@H](CCCCNC(=O)CCOCCOCCOCCOCCOCCOCCOCCOCCOCCOCCOCCOCCNC(C)=O)NC(C)=O)C(C)(C)SSC(C)(C)[C@@H](C(=O)N[C@@H](Cc2ccc(OCCN)cc2)C(=O)N[C@@H](Cc2ccc3ccccc3c2)C(=O)NC2(C(=O)N[C@@H](CCCCNC(C)=O)C(=O)N[C@@H](CC(N)=O)C(=O)N[C@@H](Cc3cccnc3)C(=O)N(C)CC(N)=O)CCOCC2)NC1=O [compound 40] (Ac-[dK]([PEG12-Ac])[Pen]NT[Trp(7-Me)]K(Ac)[Pen][AEF][2Nal][Thp]K(Ac)N[3Pal][Sar]-NH2; disulfide 2-7)	156 A^2
CC(=O)NCCCC[C@@H]1NC(=O)[C@H](Cc2c[nH]c3c(C)cccc23)NC(=O)[C@H]([C@@H](C)O)NC(=O)[C@H](CC(N)=O)NC(=O)[C@@H](NC(=O)C(F)(F)F)C(C)(C)SSC(C)(C)[C@@H](C(=O)N[C@@H](Cc2ccc(OCCN)cc2)C(=O)N[C@@H](Cc2ccc3ccccc3c2)C(=O)NC2(C(=O)N[C@@H](CCCCNC(C)=O)C(=O)N[C@@H](CC(N)=O)C(=O)N[C@@H](Cc3cccnc3)C(=O)N(C)CC(N)=O)CCOCC2)NC1=O [compound 49] (Tfa-[Pen]NT[Trp(7-Me)]K(Ac)[Pen][AEF][2Nal][Thp]K(Ac)N[3Pal][Sar]-NH2; disulfide 1-6)	164 A^2

More lines, now with the values ahead:

EPSA	SMILES
152 A^2	CC(=O)NCCCC[C@H](NC(=O)[C@](C)(CCCCN)NC(=O)[C@H](Cc1ccc2ccccc2c1)NC(=O)[C@H](Cc1ccc(OCCN)cc1)NC(=O)[C@H]1NC(=O)[C@H](Cc2ccc(O)cc2)NC(=O)[C@H](Cc2c[nH]c3c(C)cccc23)NC(=O)[C@H]([C@@H](C)O)NC(=O)[C@H](CC(N)=O)NC(=O)[C@@H](NC(C)=O)C(C)(C)SSC1(C)C)C(=O)N[C@@H](CC(N)=O)C(=O)N[C@H](CCCCN)C(=O)N(C)[C@H](Cc1ccc(O)cc1)C(N)=O [compound 21, MeCO-Pen(3)-N-T-7MeW-Y-Pen(3)-AEF-2Nal-aMeK-K(Ac)-N-k-NMeDTyr-CONH2] (Ac-[Pen]NT[Trp(7-Me)]Y[Pen][AEF][2Nal][αMeK]K(Ac)N[dK][dNMeY]-NH2; disulfide 1-6 (inferred))
148 A^2	CC(=O)NCCCC[C@@H]1NC(=O)[C@H](Cc2c[nH]c3c(C)cccc23)NC(=O)[C@H]([C@@H](C)O)NC(=O)[C@H](CC(N)=O)NC(=O)[C@@H](NC(C)=O)C(C)(C)SSC(C)(C)[C@@H](C(=O)N[C@@H](Cc2ccc(OCCN)cc2)C(=O)N[C@@H](Cc2ccc3ccccc3c2)C(=O)N[C@@](C)(CCCCN)C(=O)N[C@@H](CCCCNC(C)=O)C(=O)N[C@@H](CC(N)=O)C(=O)N[C@H](Cc2c[nH]cn2)C(=O)N(C)[C@H](Cc2ccc(O)cc2)C(N)=O)NC1=O [compound 26, MeCO-Pen(3)-N-T-7MeW-K(Ac)-Pen(3)-AEF-2Nal-aMeK-K(Ac)-N-h-NMeDTyr-CONH2] (Ac-[Pen]NT[Trp(7-Me)]K(Ac)[Pen][AEF][2Nal][αMeK]K(Ac)N[dH][dNMeY]-NH2; disulfide 1-6 (inferred))
173 A^2	CC(=O)NCCCC[C@@H]1NC(=O)[C@H](Cc2c[nH]c3c(C)cccc23)NC(=O)[C@H]([C@@H](C)O)NC(=O)[C@H](CC(N)=O)NC(=O)[C@@H](NC(=O)[C@@H](CCCNC(=N)N)NC(=O)CCOCCOCCOCCOCCOCCOCCOCCOCCOCCNC(C)=O)C(C)(C)SSC(C)(C)[C@@H](C(=O)N[C@@H](Cc2ccc(OCCN)cc2)C(=O)N[C@@H](Cc2ccc3ccccc3c2)C(=O)NC2(C(=O)N[C@@H](CCC(=O)O)C(=O)N[C@@H](CC(N)=O)C(=O)N[C@@H](Cc3cccnc3)C(=O)N(C)CC(N)=O)CCOCC2)NC1=O [compound 43] (Ac-[PEG9][dR][Pen]NT[Trp(7-Me)]K(Ac)[Pen][AEF][2Nal][Thp]EN[3Pal][Sar]-NH2; disulfide 3-8)
154 A^2	CNCCOc1ccc(C[C@H](NC(=O)[C@H]2NC(=O)[C@H](CCCCNC(C)=O)NC(=O)[C@H](Cc3c[nH]c4c(C)cccc34)NC(=O)[C@H]([C@@H](C)O)NC(=O)[C@H](CC(N)=O)NC(=O)[C@@H](NC(C)=O)C(C)(C)SSC2(C)C)C(=O)N[C@@H](Cc2ccc3ccccc3c2)C(=O)NC2(C(=O)N[C@@H](CCCCNC(C)=O)C(=O)N[C@@H](CC(N)=O)C(=O)N[C@@H](Cc3cccnc3)C(=O)N(C)CC(N)=O)CCOCC2)cc1 [compound 47] (Ac-[Pen]NT[Trp(7-Me)]K(Ac)[Pen]Y(X2)[2Nal][Thp]K(Ac)N[3Pal][Sar]-NH2; disulfide 1-6 (inferred))
184 A^2	CNC(=O)C[C@H](NC(=O)[C@H](CCCCNC(C)=O)NC(=O)C1(NC(=O)[C@H](Cc2ccc3ccccc3c2)NC(=O)[C@H](Cc2ccc(OCCN)cc2)NC(=O)[C@H]2NC(=O)[C@H](CCCCNC(C)=O)NC(=O)[C@H](Cc3c[nH]c4c(C)cccc34)NC(=O)[C@H]([C@@H](C)O)NC(=O)[C@H](CC(N)=O)NC(=O)[C@@H](NC(C)=O)C(C)(C)SSC2(C)C)CCOCC1)C(=O)N[C@@H](Cc1cccnc1)C(=O)N(C)CC(N)=O [compound 48] (Ac-[Pen]NT[Trp(7-Me)]K(Ac)[Pen][AEF][2Nal][Thp]K(Ac)D(NHMe)[3Pal][Sar]-NH2; disulfide 1-6)
